Reference: PMC11048155, “Antiviral Drug Candidate Repositioning for Streptococcus suis Infection in Non-Tumorigenic Cell Models” (Biomedicines, 2024)
“Also recorded” adds a separate entry of the source.

How the values were obtained:
[1] = test system: Salmonella (S.) enterica (clinical isolate); test: MIC measurement (broth microdilution); type: cell-based; conditions: source 204/22, 18–24 h at 37 °C
Text: Bacterial strains used in this study were as follows: S. suis serotype 2 (ATCC 958242) Staphylococcus (S.) aureus (ATCC 10832), Escherichia (E.) coli (ATCC 11775), Pseudomonas (P.) aeruginosa (ATCC 27853), Pasteurella (P.) multocida (clinical isolate), Burkholderia (B.) cepacia (clinical isolate), Salmonella (S.) enterica (clinical isolate), and Enterococcus (E.) faecalis (clinical isolate). Of the clinical isolates used in this study, P. multocida is of porcine origin, B. cepacia is of human origin, and S. enterica and E. faecalis are of poultry origin. The bacterial strains were stored in the Microbiology Laboratory of the University of Veterinary Medicine, Budapest, at a temperature of −80 °C. Bacterial strains were inoculated the day before the test in 5 mL of Cation-Adjusted Mueller–Hinton Broth (CAMHB) and incubated for 18–24 h at 37 °C. The initial inoculum concentration used for the MIC assay was 5 × 10^5/mL. All wells except the first column of the working plates were filled with 90 µL CAMHB. A stock solution of inhibitors at 800 µM was then prepared, 180 µL of which was measured into the first column of plates and used to prepare a 2-based dilution on 96-well plates. After the 10th column, the tips were discarded with the 90 µL excess solution so that each column contained 90 µL of solution. Each bacterial strain was tested in a single row on the working plates. A bacterial suspension diluted to 25× was prepared on an auxiliary plate for bacterial inoculation by loading 240 µL of TSB per column of plates and adding 10–10 µL of bacterial strain suspension per well. In the next step, the isolated bacterial strains were inoculated onto the plates. Starting from column 11 (positive control) of the plates containing dilution row 2, 10 µL of bacterial suspension was added to each well, working backward. Column 11 served as a positive control (containing only bacterial suspension and broth), while column 12 served as a negative control (containing only broth). The microplates were then incubated at 37 °C for 18–24 h, and the MIC values were assessed in comparison to positive controls.

[2] = test system: Enterococcus (E.) faecalis (clinical isolate); test: MIC measurement (broth microdilution); type: cell-based; conditions: Enterococcus; E. fecalis, source 442; 18–24 h at 37 °C; read-out: MIC
[3] = biological target: T1, CYP2C19 (Homo sapiens, UniProt P33261); test: CYP enzyme fluorometric activity measurement, human hepatic microsomes; type: in vitro ADME; conditions: inhibitor 50 µM, 15 min, p > 0.05
T1 construct: Human hepatic microsomal supernatants were prepared; tissue Gibco; host or cells: human liver microsomes
Experimental: The Biovision CYP assays (BioVision, Inc., Kampenhout, Belgium) employ non-fluorescent CYP2D6, 2C9, 2C19, 1A2, or 3A4 substrates able to undergo transformation into highly fluorescent detectable metabolites. […] Human hepatic microsomal supernatants were prepared (Gibco, Biocentre, Szeged, Hungary protein concentration: 20 mg/mL) separately by mixing 30 µL with 2425 µL assay buffer and with 50 µL nicotinamide adenine dinucleotide phosphate (NADPH) generating system (100×). […] Control measurements were performed in the absence of the inhibitors.
In background controls, only assay buffer excluding microsomes and test compounds was used in a volume of 70 µL. Subsequently, after incubation at 37 °C for 15 min, 30 µL of the suitable CYP substrate/NADP+ mixture was incorporated into each well, resulting in a final reaction volume of 100 µL/well. The obtained microsomal protein content was assessed using the bicinchoninic acid protein assay kit (Pierce BCA kit, Thermo Fisher Scientific, Waltham, MA, USA). In each assay, the microsomal protein concentration was calibrated to 100 µg/well. The fluorescence intensities were measured with a fluorometer (Victor X2 2030, Perkin Elmer, Waltham, MA, USA) using λex/em = 406/468 nm for CYP1A2 and for CYP2C19, λex/em = 415/502 nm for CYP2C9, λex/em = 390/468 nm for CYP2D6, and λex/em = 535/587 nm for CYP3A4 assays.

[4] = test system: IPEC-J2 cells; test: EC H2O2 production, Amplex red method; type: cell-based, porcine; conditions: 24 h
Experimental: For oxidative status measurements, inhibitors MI-432, MI-471, or MI-476 were used at 50 µM in the absence and presence of S. suis for 24 h in IPEC-J2 cells and in primary porcine hepatocytes on 24-well plates. An Amplex red hydrogen peroxide assay kit was used to monitor EC hydrogen peroxide (H₂O₂) production in IPEC-J2 cells and in hepatocytes. Following the manufacturer’s instructions, cell-free supernatants were collected and mixed with the Amplex red working solution (in a ratio of 1:1). A Victor X2 2030 fluorometer was used to detect fluorescence intensity at wavelengths 530 nm and 590 nm for excitation and emission, respectively.

[5] = test system: IPEC-J2 cells; test: IL-6 production, porcine IL-6 ELISA; type: cell-based; conditions: IPEC-J2, S. suis 10^4 CFU/mL in combination with inhibitor, 24 h
Experimental: (§1) After 24 h incubation time, the cell-free supernatants from […], MI-471, and MI-476 exposure were sampled from IPEC-J2 cells and from porcine hepatocytes. The changes in cytokine levels were detected with porcine IL-6 ELISA kits. The manufacturer’s instructions were followed to treat the supernatants and measured by a SpectraMax iD3 microplate reader at 450 nm.

[6] = test system: porcine hepatocytes; test: IL-6 production, porcine IL-6 ELISA; type: cell-based; conditions: S. suis 10^4 CFU/mL in combination with inhibitor, 24 h
Experimental: as §1

[7] = test system: primary porcine hepatocytes; test: Cell viability, Neutral red assay; type: cell-based; conditions: S. suis 10^4 CFU/mL in combination with inhibitor 50 µM, 24 h
Experimental: Porcine cryopreserved primary hepatocytes were obtained from Primacyt Cell Culture Company (Schwerin, Germany). Lonza Group Ltd. (Biocenter Ltd., Szeged, Hungary) supplied the thawing, plating, and maintenance media. The cytotoxic effects of inhibitors MI-432, MI-471, and MI-476 were tested on the viability of primary hepatocytes using the NR method. The hepatocytes were cultivated on a 96-well plate for 24 h, followed by incubation with the inhibitors at 0, 50, and 100 µM for an additional 24 h. Only cell maintenance medium was used to incubate the control cells. The plate underwent incubation together with NR dye for 2 h. Hepatocyte viability was recorded at 540 nm with a SpectraMax iD3 microplate reader.

[8] = IPEC-J2, S. suis 10^4 CFU/mL in combination with inhibitor 50 µM

T1 sequence (P33261 whole entry): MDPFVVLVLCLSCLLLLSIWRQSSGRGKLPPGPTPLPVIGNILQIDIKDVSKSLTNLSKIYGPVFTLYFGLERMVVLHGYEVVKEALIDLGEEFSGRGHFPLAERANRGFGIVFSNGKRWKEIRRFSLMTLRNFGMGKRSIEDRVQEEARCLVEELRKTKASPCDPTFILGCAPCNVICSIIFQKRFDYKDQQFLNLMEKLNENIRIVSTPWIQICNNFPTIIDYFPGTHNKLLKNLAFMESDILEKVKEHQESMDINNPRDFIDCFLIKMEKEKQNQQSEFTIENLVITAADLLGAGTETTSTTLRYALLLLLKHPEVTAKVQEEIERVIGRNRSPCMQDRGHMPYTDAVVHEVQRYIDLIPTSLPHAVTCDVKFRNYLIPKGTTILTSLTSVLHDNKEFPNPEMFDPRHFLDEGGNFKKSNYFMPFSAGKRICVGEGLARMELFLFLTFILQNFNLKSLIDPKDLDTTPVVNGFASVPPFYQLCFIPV

N=C(N)c1cccc(C[C@H](NS(=O)(=O)c2cccc(-c3ccc(Cl)cc3Cl)c2)C(=O)N2CCC(N)CC2)c1 [MI-471]
MIC [1]: > 800 µM
MIC [2]: > 800 µM
CYP2C19 activity [3]: No significant inhibitory effects
EC H2O2 production [4, 8]: significant increase; also recorded: significant elevation in H2O2 levels
EC H2O2 production ([4]; IPEC-J2, inhibitor alone 50 µM): unchanged H₂O₂ production
IL-6 levels [5]: significant anti-inflammatory effects
IL-6 levels [6]: significant anti-inflammatory effects

N=C(N)c1cccc(C[C@H](NS(=O)(=O)c2cccc(-c3ccc(Cl)cc3Cl)c2)C(=O)N2CCC(CN)CC2)c1 [MI-476]
MIC [1]: > 800 µM
MIC [2]: > 800 µM
CYP2C19 activity [3]: No significant inhibitory effects
cell viability [7]: did not deteriorate cell viability; also recorded: effectively suppressed
EC H2O2 production [4, 8]: unchanged H₂O₂ production; also recorded: antioxidant properties
EC H2O2 production ([4]; IPEC-J2, inhibitor alone 50 µM): unchanged H₂O₂ production
IL-6 levels [5]: significant anti-inflammatory effects
IL-6 levels [6]: significant anti-inflammatory effects
